What was measured:
MeCP2-deficient mice = experiment: Effect of KIT-13 on brain plasmalogen in cerebral cortex tissue lysate (LC-MS/MS), MeCP2-deficient mice; type: in vivo; conditions: male MeCP2-deficient mice, 20 ng/g body weight twice a week by drinking-water administration for three weeks, vs control group given water
Experimental: Four-week-old male MeCP2-deficient mice lacking the MeCP2 gene on the X chromosome were used in the test. The MeCP2-deficient mice were divided into two groups: a control group (MeCP2-KO) and a KIT-13 administration group (KIT-13).
For the KIT-13 administration group, KIT-13 was suspended in water by ultrasonication, and administered twice a week by drinking-water administration such that 20 ng/g body weight of KIT-13 was taken. In contrast, the control group was given only water in a similar manner. KIT-13 was administered for three weeks until the mice were seven weeks old, and the cerebral cortex was collected from the brains of the mice.
(§1) The collected cerebral cortex was homogenized in a lysate (0.25 M sucrose, 10 mM HEPES-KOH (pH 7.4), 1 mM EDTA, and a protease inhibitor cocktail) to prepare a tissue lysate (25 µg protein). To the tissue lysate in a sample tube, 400 µL of MeOH and 100 µL of internal standard IS (C12 phosphatidylethanolamine (PE) and C12 phosphatidylcholine (PC)) dissolved in chloroform/methanol (C:M=1:2) were added and then mixed. The resulting mixture was transferred to a glass tube. […] Thereafter, the sample was dried under nitrogen gas, dissolved in MeOH, and analyzed using liquid chromatography-mass spectrometry (LC-MS/MS). […]

[1] = tested on: wild-type mice (male, C57BL/6J mice); experiment: Effect of KIT-13 on cerebral cortex PlsEtn (LC-MS/MS), wild-type mice; type: in vivo; conditions: wild-type male C57BL/6J mice; KIT-13 given as in Example 2 for four weeks; control group taken as 1; FIG. 2
Experimental: For the KIT-13 administration group, KIT-13 was suspended in water by ultrasonication, and administered twice a week by drinking-water administration such that 20 ng/g body weight of KIT-13 was taken. In contrast, the control group was given only water in a similar manner. […]
as §1, with “tube. Then, 200 µL of MeOH was added again to the sample tube, and after the same operation, the resulting mixture was transferred to the glass tube. To the sample, 1.2 mL of C/M (1:1) was added, mixed, sonicated for 5 minutes, and left to stand for 60 minutes.” for “tube.”
Four-week-old wild-type mice (male, C57BL/6J mice, manufactured by the Jackson Laboratory Japan, Inc.) were divided into two groups: a control group and a KIT-13 administration group. […] PlsEtn in the collected cerebral cortex was quantified as with Example 2.

CCCCCC=CCC=CCC=CCC=CCCCC(=O)OC(COCCCCCCCCCCCCCCCCCC)COP(=O)(O)OCCN [KIT-13, 2-(hydroxy((R)-2-(((5Z,8Z,11Z,14Z)-icosa-5,8,11,14-tetraenoyl)oxy)-3-(octadedecyloxy)propoxy)phosphoryl)oxy)ethane-1-ammonium 2,2,2-trifluoroacetate]
significantly increased: concentration of PlsEtn in the tissue lysate (MeCP2-deficient mice; p < 0.05, FIG. 1A) | concentration of PlsEtn in which the sn-1 position is a saturated aliphatic hydrocarbon group having 18 carbon atoms (PlsEtn-C18:0), in the tissue lysate (MeCP2-deficient mice; p < 0.05, FIG. 1B) | relative PlsEtn amount in the cerebral cortex [1]
